According to PMC6407913, “DREADD Agonist 21 Is an Effective Agonist for Muscarinic-Based DREADDs in Vitro and in Vivo” (ACS Pharmacology & Translational Science, 2018):
Several values for one entry are separate records, joined by “and”; a condition that tells them apart may be missing. Equal values may be shown once. Read-outs that look alike come from different tables or passages of the source.

Columns and labels:
Test in all cases: NIMH PDSP radioligand binding, membranes
M3 = M3 (Homo sapiens, UniProt P20309)
Description: (§1) Radioligand binding assays with membrane preparations to determine binding affinity were carried out as outlined before[540] and by the National Institute of Mental Health’s Psychoactive Drug Screening Program (NIMH PDSP) (https://pdsp.unc.edu/), Contract # HHSN-271–2013–00017-C. The NIMH PDSP is Directed by B.L.R. at the University of North Carolina at Chapel Hill, Chapel Hill, NC, and Project Officer Jamie Driscoll at NIMH, Bethesda, MD.

Alpha 1B = target: T1, Alpha 1B (Homo sapiens, UniProt P35368)
T1 construct: NIMH PDSP
T1 sequence (P35368 1-520): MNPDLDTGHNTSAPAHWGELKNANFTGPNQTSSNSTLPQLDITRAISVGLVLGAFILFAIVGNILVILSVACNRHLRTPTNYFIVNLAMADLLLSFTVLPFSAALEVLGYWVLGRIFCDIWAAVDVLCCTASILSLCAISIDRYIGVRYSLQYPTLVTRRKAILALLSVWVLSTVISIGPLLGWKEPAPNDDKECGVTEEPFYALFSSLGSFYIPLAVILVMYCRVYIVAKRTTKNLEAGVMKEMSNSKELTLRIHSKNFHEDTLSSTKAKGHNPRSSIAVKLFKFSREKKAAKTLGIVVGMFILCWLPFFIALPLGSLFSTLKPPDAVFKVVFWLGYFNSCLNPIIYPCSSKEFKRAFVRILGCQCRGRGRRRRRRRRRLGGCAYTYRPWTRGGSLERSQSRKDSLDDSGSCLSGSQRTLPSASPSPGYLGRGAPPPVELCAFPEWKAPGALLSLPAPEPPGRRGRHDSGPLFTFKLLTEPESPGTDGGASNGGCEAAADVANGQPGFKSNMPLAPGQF
Description: as §1

Alpha2A = target: T2, Alpha2A (Homo sapiens, UniProt P08913)
T2 construct: NIMH PDSP
Description: as §1

D4 = D4 (Homo sapiens, UniProt P21917)
Description: as §1

H3 = H3 (Homo sapiens, UniProt Q9Y5N1)
Description: as §1

5-HT1D = 5-HT1D (Homo sapiens, UniProt P28221)
Description: as §1

H1 = H1 (Homo sapiens, UniProt P35367)
Description: as §1

D2 = D2 (Homo sapiens, UniProt P14416)
Description: as §1

M4 = M4 (Homo sapiens, UniProt P08173)
Description: as §1

CB2 = target: T3, CB2 (Homo sapiens, UniProt P34972)
T3 construct: NIMH PDSP
Description: as §1

5-HT7 = target: T4, 5-HT7 (Homo sapiens, UniProt P34969)
T4 construct: NIMH PDSP
Description: as §1

D5 = D5 (Homo sapiens, UniProt P21918)
Description: as §1

Beta1 = target: T5, Beta1 (Homo sapiens, UniProt P08588)
T5 construct: NIMH PDSP
Description: as §1

Alpha1D = target: T6, Alpha1D (Homo sapiens, UniProt P25100)
T6 construct: NIMH PDSP
T6 sequence (P25100 1-572): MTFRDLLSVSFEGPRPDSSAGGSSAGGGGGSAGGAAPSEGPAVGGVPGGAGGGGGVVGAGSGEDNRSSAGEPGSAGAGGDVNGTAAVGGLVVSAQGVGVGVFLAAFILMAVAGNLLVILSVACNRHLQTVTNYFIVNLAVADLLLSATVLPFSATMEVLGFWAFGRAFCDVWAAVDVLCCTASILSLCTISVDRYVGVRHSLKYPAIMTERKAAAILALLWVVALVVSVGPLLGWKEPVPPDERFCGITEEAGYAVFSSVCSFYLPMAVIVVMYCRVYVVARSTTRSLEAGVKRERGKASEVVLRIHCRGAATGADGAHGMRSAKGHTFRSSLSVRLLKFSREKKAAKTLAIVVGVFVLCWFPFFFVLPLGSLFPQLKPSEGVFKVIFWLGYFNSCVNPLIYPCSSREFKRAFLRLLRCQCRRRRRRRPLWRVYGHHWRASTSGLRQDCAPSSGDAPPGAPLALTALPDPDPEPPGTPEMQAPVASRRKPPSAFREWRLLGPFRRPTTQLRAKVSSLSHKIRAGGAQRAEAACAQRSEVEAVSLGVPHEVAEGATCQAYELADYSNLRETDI
Description: as §1

D3 = D3 (Homo sapiens, UniProt P35462)
Description: as §1

5-HT4 = target: T7, 5-HT4 (Homo sapiens, UniProt Q13639)
T7 construct: NIMH PDSP
Description: as §1

M5 = M5 (Homo sapiens, UniProt P08912)
Description: as §1

Beta2 = Beta2 (Homo sapiens, UniProt P07550)
Description: as §1

M2 = M2 (Homo sapiens, UniProt P08172)
Description: as §1

5-HT1E = 5-HT1E (Homo sapiens, UniProt P28566)
Description: as §1

5-HT1A = target: T8, 5-HT1A (Homo sapiens, UniProt P08908)
T8 construct: NIMH PDSP
Description: as §1

[1] = read-out: Ki #1-#5 (individual assays)

T4 sequence (P34969 whole entry, species assumed): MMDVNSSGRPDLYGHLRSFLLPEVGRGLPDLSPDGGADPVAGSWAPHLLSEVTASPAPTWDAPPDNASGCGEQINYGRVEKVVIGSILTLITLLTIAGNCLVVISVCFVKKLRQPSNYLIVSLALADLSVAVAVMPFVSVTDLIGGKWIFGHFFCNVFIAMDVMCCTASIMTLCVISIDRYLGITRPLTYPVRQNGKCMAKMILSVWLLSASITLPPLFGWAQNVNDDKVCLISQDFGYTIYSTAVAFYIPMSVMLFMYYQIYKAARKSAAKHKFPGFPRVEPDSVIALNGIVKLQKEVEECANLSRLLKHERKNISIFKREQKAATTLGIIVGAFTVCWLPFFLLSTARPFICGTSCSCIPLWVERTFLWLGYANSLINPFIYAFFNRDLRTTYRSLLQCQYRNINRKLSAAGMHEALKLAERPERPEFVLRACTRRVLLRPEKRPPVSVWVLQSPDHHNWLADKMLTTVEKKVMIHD
Chain of 5-HT1D (P28221 whole entry, species assumed): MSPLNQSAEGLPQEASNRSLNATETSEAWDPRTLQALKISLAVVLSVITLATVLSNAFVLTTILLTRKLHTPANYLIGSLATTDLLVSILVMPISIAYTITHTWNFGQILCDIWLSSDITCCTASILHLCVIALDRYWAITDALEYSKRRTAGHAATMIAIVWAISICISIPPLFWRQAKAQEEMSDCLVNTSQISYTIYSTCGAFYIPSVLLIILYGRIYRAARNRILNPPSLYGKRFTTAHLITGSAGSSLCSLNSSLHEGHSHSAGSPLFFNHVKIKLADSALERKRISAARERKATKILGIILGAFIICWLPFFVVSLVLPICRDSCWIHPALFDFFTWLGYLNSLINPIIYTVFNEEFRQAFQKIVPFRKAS
T8 sequence (P08908 whole entry, species assumed): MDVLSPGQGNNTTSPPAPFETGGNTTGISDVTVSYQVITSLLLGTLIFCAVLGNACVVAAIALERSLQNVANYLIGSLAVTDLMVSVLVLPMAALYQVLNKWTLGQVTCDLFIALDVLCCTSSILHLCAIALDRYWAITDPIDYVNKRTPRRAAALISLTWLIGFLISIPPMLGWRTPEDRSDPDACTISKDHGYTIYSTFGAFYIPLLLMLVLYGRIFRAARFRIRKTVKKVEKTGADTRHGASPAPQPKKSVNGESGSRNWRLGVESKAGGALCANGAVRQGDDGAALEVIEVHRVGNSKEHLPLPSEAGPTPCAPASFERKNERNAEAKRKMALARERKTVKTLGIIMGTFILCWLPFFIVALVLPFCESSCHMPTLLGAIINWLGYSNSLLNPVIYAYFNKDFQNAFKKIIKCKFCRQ
Chain of D2 (P14416 whole entry): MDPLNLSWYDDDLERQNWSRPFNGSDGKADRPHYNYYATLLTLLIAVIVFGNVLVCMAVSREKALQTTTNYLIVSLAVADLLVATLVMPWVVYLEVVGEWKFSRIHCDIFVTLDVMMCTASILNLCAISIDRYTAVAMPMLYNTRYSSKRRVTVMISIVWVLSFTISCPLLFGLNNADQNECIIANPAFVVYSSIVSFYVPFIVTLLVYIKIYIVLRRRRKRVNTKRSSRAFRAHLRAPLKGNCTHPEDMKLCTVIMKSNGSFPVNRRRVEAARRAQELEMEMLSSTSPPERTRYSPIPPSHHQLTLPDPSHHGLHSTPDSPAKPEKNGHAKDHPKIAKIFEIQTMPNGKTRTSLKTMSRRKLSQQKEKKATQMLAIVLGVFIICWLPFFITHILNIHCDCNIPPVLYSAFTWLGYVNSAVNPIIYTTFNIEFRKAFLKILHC
Chain of M4 (P08173 whole entry): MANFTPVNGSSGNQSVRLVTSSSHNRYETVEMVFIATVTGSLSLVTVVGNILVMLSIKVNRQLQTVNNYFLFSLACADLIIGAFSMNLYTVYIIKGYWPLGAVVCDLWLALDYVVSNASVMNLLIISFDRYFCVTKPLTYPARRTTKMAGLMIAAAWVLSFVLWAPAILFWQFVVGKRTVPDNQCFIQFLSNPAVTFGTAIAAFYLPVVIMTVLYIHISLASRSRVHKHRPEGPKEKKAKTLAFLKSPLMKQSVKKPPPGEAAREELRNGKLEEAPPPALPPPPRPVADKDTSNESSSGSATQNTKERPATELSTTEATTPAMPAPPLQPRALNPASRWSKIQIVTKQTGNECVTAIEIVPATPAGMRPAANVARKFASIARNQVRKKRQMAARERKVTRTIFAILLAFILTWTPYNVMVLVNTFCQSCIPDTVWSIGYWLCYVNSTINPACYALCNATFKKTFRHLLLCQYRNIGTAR
Chain of H3 (Q9Y5N1 whole entry): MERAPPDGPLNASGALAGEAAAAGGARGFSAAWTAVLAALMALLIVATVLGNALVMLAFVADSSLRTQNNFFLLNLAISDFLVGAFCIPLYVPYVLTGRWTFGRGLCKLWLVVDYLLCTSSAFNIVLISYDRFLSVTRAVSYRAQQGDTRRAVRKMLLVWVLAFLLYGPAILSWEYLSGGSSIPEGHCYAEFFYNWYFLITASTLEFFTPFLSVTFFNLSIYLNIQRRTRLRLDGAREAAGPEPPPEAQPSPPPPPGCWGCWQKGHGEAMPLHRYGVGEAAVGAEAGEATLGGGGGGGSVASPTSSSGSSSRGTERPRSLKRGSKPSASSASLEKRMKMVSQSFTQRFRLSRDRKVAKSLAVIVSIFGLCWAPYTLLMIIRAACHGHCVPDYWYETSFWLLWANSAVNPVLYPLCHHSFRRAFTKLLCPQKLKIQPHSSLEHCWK
Chain of D3 (P35462 whole entry): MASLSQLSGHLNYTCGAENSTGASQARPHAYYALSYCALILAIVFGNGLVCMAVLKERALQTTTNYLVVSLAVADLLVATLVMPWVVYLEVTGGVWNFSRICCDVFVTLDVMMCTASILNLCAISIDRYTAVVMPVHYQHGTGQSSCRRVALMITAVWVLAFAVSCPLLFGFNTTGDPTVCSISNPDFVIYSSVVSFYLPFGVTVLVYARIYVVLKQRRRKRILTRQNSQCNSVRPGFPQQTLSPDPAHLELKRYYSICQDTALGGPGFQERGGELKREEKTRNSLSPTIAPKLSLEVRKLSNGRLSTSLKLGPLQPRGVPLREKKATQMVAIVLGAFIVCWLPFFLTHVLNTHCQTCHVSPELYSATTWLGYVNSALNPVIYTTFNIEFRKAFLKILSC
Chain of D4 (P21917 whole entry): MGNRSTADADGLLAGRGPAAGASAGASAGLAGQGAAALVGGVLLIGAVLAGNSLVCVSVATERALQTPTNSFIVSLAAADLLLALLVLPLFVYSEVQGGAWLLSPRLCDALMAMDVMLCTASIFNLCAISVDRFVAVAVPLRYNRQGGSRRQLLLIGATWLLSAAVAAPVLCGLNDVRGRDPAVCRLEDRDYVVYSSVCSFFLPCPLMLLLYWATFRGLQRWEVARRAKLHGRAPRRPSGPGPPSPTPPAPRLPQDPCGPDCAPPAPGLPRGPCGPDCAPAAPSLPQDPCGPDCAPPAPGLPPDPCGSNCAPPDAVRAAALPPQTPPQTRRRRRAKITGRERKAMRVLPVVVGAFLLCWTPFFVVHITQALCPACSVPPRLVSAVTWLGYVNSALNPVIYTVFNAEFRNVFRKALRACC
Chain of M5 (P08912 whole entry): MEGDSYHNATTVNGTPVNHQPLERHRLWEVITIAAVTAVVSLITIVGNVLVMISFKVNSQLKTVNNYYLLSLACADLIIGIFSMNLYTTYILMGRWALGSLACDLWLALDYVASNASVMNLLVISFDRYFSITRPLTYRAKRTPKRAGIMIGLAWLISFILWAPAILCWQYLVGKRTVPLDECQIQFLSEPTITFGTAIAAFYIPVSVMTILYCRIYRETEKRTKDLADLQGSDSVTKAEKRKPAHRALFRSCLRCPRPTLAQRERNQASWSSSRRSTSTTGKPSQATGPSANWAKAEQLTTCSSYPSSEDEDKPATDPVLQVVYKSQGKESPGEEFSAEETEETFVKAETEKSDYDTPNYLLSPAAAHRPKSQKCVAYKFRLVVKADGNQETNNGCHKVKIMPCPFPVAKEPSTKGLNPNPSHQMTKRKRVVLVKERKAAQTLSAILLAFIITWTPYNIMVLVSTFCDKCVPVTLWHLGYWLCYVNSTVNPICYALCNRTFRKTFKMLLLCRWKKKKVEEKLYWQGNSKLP
Chain of M3 (P20309 whole entry): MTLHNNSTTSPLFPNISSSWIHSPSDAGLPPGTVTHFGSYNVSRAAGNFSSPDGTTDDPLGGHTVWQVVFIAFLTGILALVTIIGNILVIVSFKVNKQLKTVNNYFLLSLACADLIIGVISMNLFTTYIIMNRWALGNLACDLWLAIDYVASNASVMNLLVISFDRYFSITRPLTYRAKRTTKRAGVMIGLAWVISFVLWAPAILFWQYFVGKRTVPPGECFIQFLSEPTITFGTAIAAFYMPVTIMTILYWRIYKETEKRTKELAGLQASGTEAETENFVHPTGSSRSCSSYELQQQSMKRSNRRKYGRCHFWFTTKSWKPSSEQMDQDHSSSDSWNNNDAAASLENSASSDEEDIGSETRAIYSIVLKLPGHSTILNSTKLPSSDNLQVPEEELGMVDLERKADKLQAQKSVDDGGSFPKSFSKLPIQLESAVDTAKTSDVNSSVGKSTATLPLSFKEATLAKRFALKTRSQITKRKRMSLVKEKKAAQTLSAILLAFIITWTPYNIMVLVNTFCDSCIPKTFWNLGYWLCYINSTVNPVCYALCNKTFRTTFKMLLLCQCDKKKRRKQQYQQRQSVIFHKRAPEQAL
Chain of 5-HT1E (P28566 whole entry, species assumed): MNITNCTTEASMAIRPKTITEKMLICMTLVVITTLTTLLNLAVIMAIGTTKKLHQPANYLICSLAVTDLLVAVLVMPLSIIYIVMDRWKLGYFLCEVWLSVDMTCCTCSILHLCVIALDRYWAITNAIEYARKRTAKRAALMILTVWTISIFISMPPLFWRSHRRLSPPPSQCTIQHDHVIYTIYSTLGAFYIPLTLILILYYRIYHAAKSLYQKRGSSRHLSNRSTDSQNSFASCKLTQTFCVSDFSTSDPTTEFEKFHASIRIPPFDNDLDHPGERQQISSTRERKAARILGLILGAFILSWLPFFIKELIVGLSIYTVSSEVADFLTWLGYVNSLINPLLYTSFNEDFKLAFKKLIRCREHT

Question: `c1ccc2c(c1)N=C(N1CCNCC1)c1ccccc1N2` [C21, 11-(1-piperazinyl)-5H-dibenzo[b,e][1,4]diazepine] was tested. Which Ki (M3; read-out: Ki) did it give?
Answer: The Ki was 270 nM.

Question: And the Ki (M3; [1])?
Answer: Its Ki is 144 nM and 485 nM and 281 nM.

Question: And the “log Ki (individual assays)” value (Alpha 1B)?
Answer: Its value is <5.

Question: What about the Ki (Alpha 1B; read-out: Ki) of the same molecule?
Answer: Its Ki is > 10 µM.

Question: And the Ki (Alpha 1B; [1])?
Answer: The Ki was > 10 µM.

Question: What about the Ki (Alpha2A; read-out: Ki) of the same molecule?
Answer: The Ki was 1770 nM.

Question: What about the Ki (Alpha2A; [1]) of the same molecule?
Answer: Its Ki is 4750 nM and 809 nM and 1440 nM.

Question: What about the Ki (D4; read-out: Ki) of the same molecule?
Answer: The Ki was 2050 nM.

Question: What about the Ki (D4; [1]) of the same molecule?
Answer: The Ki was 1380 nM and 896 nM and 4050 nM and 3570 nM.

Question: And the Ki (H3; read-out: Ki)?
Answer: Its Ki is 4.94 µM.

Question: And the Ki (H3; [1])?
Answer: Its Ki is 6.85 µM and 4.58 µM and 3.85 µM.

Question: What about the Ki (5-HT1D; read-out: Ki) of the same molecule?
Answer: The Ki was 972 nM.

Question: What about the Ki (5-HT1D; [1]) of the same molecule?
Answer: The Ki was 1190 nM and 785 nM and 983 nM.

Question: And the Ki (H1; [1])?
Answer: The Ki was 4.5 nM.

Question: And the Ki (H1; read-out: log Ki (individual assays) (converted))?
Answer: Its Ki is 3.47 nM and 2.4 nM.

Question: And the Ki (H1; read-out: pKi (mean) (converted))?
Answer: Its Ki is 3.39 nM.

Question: And the Ki (D2; read-out: Ki)?
Answer: Its Ki is 4.57 µM.

Question: And the Ki (D2; [1])?
Answer: Its Ki is 2.75 µM and 4.74 µM and 7.34 µM.

Question: What about the Ki (M4; read-out: Ki) of the same molecule?
Answer: The Ki was 1880 nM.

Question: And the Ki (M4; [1])?
Answer: Its Ki is 1560 nM and 2440 nM and 3020 nM and 734 nM and 2800 nM.

Question: What about the Ki (CB2; read-out: Ki) of the same molecule?
Answer: Its Ki is > 10 µM.

Question: And the Ki (CB2; [1])?
Answer: Its Ki is > 10 µM.

Question: What about the Ki (5-HT7; read-out: Ki) of the same molecule?
Answer: Its Ki is 107 nM.

Question: And the Ki (5-HT7; [1])?
Answer: The Ki was 104 nM and 77 nM and 152 nM.

Question: What about the Ki (D5; read-out: Ki) of the same molecule?
Answer: The Ki was 2.9 µM.

Question: And the Ki (D5; [1])?
Answer: The Ki was 4.11 µM and 1.65 µM and 3.62 µM.

Question: And the Ki (Beta1; read-out: Ki)?
Answer: The Ki was > 10 µM.

Question: What about the Ki (Beta1; [1]) of the same molecule?
Answer: Its Ki is > 10 µM.

Question: And the “log Ki (individual assays)” value (Alpha1D)?
Answer: The value was <5.

Question: What about the Ki (Alpha1D; read-out: Ki) of the same molecule?
Answer: Its Ki is > 10 µM.

Question: What about the Ki (Alpha1D; [1]) of the same molecule?
Answer: The Ki was > 10 µM.

Question: And the Ki (D3; read-out: Ki)?
Answer: The Ki was 870 nM.

Question: And the Ki (D3; [1])?
Answer: Its Ki is 1520 nM and 1160 nM and 372 nM.

Question: And the Ki (5-HT4; read-out: Ki)?
Answer: The Ki was > 10 µM.

Question: And the Ki (5-HT4; [1])?
Answer: The Ki was > 10 µM.

Question: What about the Ki (M5; read-out: Ki) of the same molecule?
Answer: Its Ki is 421 nM.

Question: What about the Ki (M5; [1]) of the same molecule?
Answer: The Ki was 175 nM and 395 nM and 1080 nM.

Question: What about the Ki (Beta2; read-out: Ki) of the same molecule?
Answer: The Ki was > 10 µM.

Question: And the Ki (Beta2; [1])?
Answer: Its Ki is > 10 µM.

Question: What about the Ki (M2; read-out: Ki) of the same molecule?
Answer: Its Ki is 146 nM.

Question: What about the Ki (M2; [1]) of the same molecule?
Answer: Its Ki is 246 nM and 139 nM and 91 nM.

Question: And the Ki (5-HT1E; read-out: Ki)?
Answer: The Ki was 206 nM.

Question: What about the Ki (5-HT1E; [1]) of the same molecule?
Answer: Its Ki is 325 nM and 263 nM and 68 nM and 117 nM and 547 nM.

Question: And the Ki (5-HT1A; read-out: Ki)?
Answer: The Ki was 80.9 nM.

Question: What about the Ki (5-HT1A; [1]) of the same molecule?
Answer: The Ki was 64.5 nM and 144 nM and 57 nM.
